Reference: patent US20160166654A1, “COLLAGEN-TARGETED NANOPARTICLES” (PURDUE RESEARCH FOUNDATION, priority 2011, published 2016)

Test system: TNF-α production by human monocytes (THP-1)
Assay: TNF-α production by THP-1 cells (ELISA)
Format: cell-based
Settings: 24 hours, FIG. 8
Procedure: The biocompatibility of the nanoparticles was assessed by measuring toxicity and inflammation in THP-1 cells. Cells were seeded at a density of 250,000 cells/ml in 96-well plates (Corning) and treated with 10 ng/ml phorbol 12-myristate 13-acetate (PMA, Sigma-Aldrich) for 48 hours to induce differentiation, which was confirmed by the monocytes becoming adherent. Following a change of media, cells were treated with various concentrations of core+shell nanoparticles. Control samples received PBS (negative control) or 50 ng/ml lipopolysaccharide (LPS, Sigma-Aldrich) (positive control). After 24 hours, the media was collected for cytokine analysis and an MTT-based assay was performed to determine cell toxicity using the Aqueous One Proliferation Kit (Promega) according to manufacturer's instructions. […] After two hours of incubation in the cell culture incubator, the absorbance was read at 490 nm with a correction at 650 nm.
The ability of the particles to cause an inflammatory response was determined by running conditioned cell media on a TNF-α ELISA (PeproTech) according to manufacturer instructions. […] Following incubation with a detection antibody and an avidin-horse radish peroxidase conjugate, the samples were developed with the addition of 2,2′-azino-bis(3-ethylbenzthiazoline-6-sulphonic acid) (ABTS) liquid substrate (Sigma-Aldrich) and monitored at 405 nm with a correction at 650 nm.

Which TNF-α production does the source give for lipopolysaccharide here?
Its TNF-α production is “did induce TNF-α production”.
